In ChEMBL document CHEMBL1142713, “From 4,5,6,7-tetrahydro-5-methylimidazo[4,5,1-jk](1,4)benzodiazepin-2(1H)-one (TIBO) to etravirine (TMC125): fifteen years of research on non-nucleoside inhibitors of HIV-1 reverse transcriptase” (J Med Chem, 2005):

What was measured:
[1] = tested on: MT4; experiment: Effective concentration of the compound to inhibit HIV-1 replication in HIV-infected MT-4 cells; type: functional, cell-based; settings: Homo sapiens
[2] = tested on: MT4; experiment: Effective concentration of the compound to inhibit HIV-1 mutant Y181C replication in HIV-infected MT-4 cells; type: functional, cell-based, Homo sapiens
[3] = tested on: MT4; experiment: Effective concentration of the compound to inhibit HIV-1 mutant L100I replication in HIV-infected MT-4 cells; type: functional, cell-based, Homo sapiens
[4] = tested on: MT4; experiment: Effective concentration of the compound to inhibit HIV-1 mutant Y188L replication in HIV-infected MT-4 cells; type: functional, cell-based, Homo sapiens
[5] = tested on: MT4; experiment: Effective concentration of the compound to inhibit […] replication in HIV-infected MT-4 cells; type: functional, cell-based; settings: Homo sapiens
[6] = tested on: MT4; experiment: Effective concentration of the compound to inhibit HIV-1 mutant K103N replication in HIV-infected MT-4 cells; type: functional, cell-based, Homo sapiens
[7] = tested on: MT4; experiment: Effective concentration of the compound to inhibit HIV-1 mutant L100I+K103N replication in HIV-infected MT-4 cells; type: functional, cell-based, Homo sapiens
[8] = tested on: MT4; experiment: Effective concentration of the compound to inhibit HIV-1 mutant K103N+Y181C replication in HIV-infected MT-4 cells; type: functional, cell-based, Homo sapiens

SMILES | EC50 [1] [µM] | EC50 [2] [µM] | EC50 [3] [µM] | EC50 [4] [µM] | EC50 [5] [µM] | EC50 [6] [µM] | EC50 [7] [µM] | EC50 [8] [µM]
NC(=O)C(/N=C(\S)Nc1ccccc1Cl)c1c(Cl)cccc1Cl (stereo unspecified) | > 50 |  |  |  |  |  |  | 
N#Cc1ccc(Nc2nc(N)cc(Cc3c(Cl)cccc3Cl)n2)cc1 |  | 0.18 | 0.3 | 0.071 | 0.001 | 0.012 |  | 
Cc1cc(C#N)cc(C)c1Nc1ccnc(Nc2ccc(C#N)cc2)n1 |  | 0.007 | 0.034 | 0.008 | 0.0004 | 0.002 | 1.1 | 0.037
Cc1cc(C)c(Oc2ncnc(Nc3ccc(C#N)cc3)n2)c(C)c1 |  | 0.02 | 0.02 | 0.063 | 0.0006 | 0.003 | 2.5 | 0.13
C=CCN1Cc2cccc3[nH]c(=O)n(c23)CC1C (stereo unspecified) | 62 |  |  |  |  |  |  | 
N#Cc1ccc(Nc2cc(N)nc(Cc3c(Cl)cccc3Cl)n2)cc1 |  | > 10 | > 10 | > 10 | 0.45 | > 10 |  | 
O=C1Nc2ccc(Cl)cc2[C@@](C#CC2CC2)(C(F)(F)F)O1 [EFAVIRENZ] |  | 0.002 | 0.04 | 0.16 | 0.001 | 0.04 | > 10 | 0.04
NC(=O)C(/N=C(\S)Nc1ccc(Cl)cc1)c1c(Cl)cccc1Cl (stereo unspecified) | 0.16 |  |  |  |  |  |  | 
N#Cc1ccc(Nc2nc(Cc3c(Cl)cccc3Cl)ns2)cc1 | > 1 |  |  |  |  |  |  | 
CC(=O)c1ccc(C)cc1NC(C(N)=O)c1c(Cl)cccc1Cl (stereo unspecified) [LOVIRIDE] |  | 16 | 0.05 | 50 | 0.013 | 1.3 |  | 
Cc1cc(C#N)cc(C)c1Nc1nc(Nc2ccc(C#N)cc2)ncc1Br |  | 0.01 | 0.007 | 0.003 | 0.0004 | 0.0004 | 0.037 | 0.032
N#Cc1ccc(NC(=S)NC(=N)Cc2c(Cl)cccc2Cl)cc1 |  | 0.51 | 0.51 | 0.32 | 0.003 | 0.59 |  | 
NC(=O)C(Nc1ccc(Cl)cc1)c1c(Cl)cccc1Cl (stereo unspecified) | > 50 |  |  |  |  |  |  | 
N#Cc1ccc(Nc2cc(Cc3c(Cl)cccc3Cl)nc(N)n2)cc1 |  | > 10 | > 10 | > 10 | 0.01 | > 10 |  | 
Cc1cc(C#N)cc(C)c1Oc1nc(Nc2ccc(C#N)cc2)nc(N)c1Br [ETRAVIRINE] |  | 0.007 | 0.003 | 0.005 | 0.001 | 0.001 | 0.019 | 0.004
CC(C)=CCN1Cc2cc(Cl)cc3[nH]c(=S)n(c23)C[C@@H]1C | 0.033 |  |  |  |  |  |  | 

SMILES | EC50 [1] [µM] | EC50 [2] [µM] | EC50 [3] [µM] | EC50 [4] [µM] | EC50 [5] [µM] | EC50 [6] [µM] | EC50 [7] [µM] | EC50 [8] [µM]
Cc1cc(C)c(Nc2ccnc(Nc3ccc(C#N)cc3)n2)c(C)c1 [DAPIVIRINE] |  | 0.008 | 0.018 | 0.048 | 0.001 | 0.004 | > 10 | 0.044
NC(=O)C(NC(=O)c1ccccc1[N+](=O)[O-])c1c(Cl)cccc1Cl (stereo unspecified) | > 50 |  |  |  |  |  |  | 
Cc1cc(C#N)cc(C)c1Oc1ccnc(Nc2ccc(C#N)cc2)n1 |  | 0.037 | 0.073 | 0.019 | 0.001 | 0.003 | 0.8 | 0.094
NC(=O)C(Nc1ccccc1[N+](=O)[O-])c1c(Cl)cccc1Cl (stereo unspecified) | 0.1 |  |  |  |  |  |  | 
NC(=O)C(Nc1ccccc1Cl)c1c(Cl)cccc1Cl (stereo unspecified) | 0.4 |  |  |  |  |  |  | 
CC(C)Nc1cccnc1N1CCN(C(=O)c2cc3cc(NS(C)(=O)=O)ccc3[nH]2)CC1 [DELAVIRDINE] |  | 2 | 2.5 | 1.3 | 0.063 | 2.5 |  | > 10
NC(=O)C(NC(=O)Nc1ccccc1[N+](=O)[O-])c1c(Cl)cccc1Cl (stereo unspecified) | > 50 |  |  |  |  |  |  | 
NC(=O)C(NCc1ccccc1[N+](=O)[O-])c1c(Cl)cccc1Cl (stereo unspecified) | > 50 |  |  |  |  |  |  | 
Cc1ccnc2c1NC(=O)c1cccnc1N2C1CC1 [NEVIRAPINE] |  | 10 | 0.32 | > 100 | 0.032 | 6.31 |  | > 10
Cc1cc(C)c(Nc2nc(Nc3ccc(C#N)cc3)ncc2Br)c(C)c1 |  | 0.036 | 0.011 | 0.027 | 0.006 | 0.007 | 0.35 | 0.28
Cc1cc(C#N)cc(C)c1Oc1nc(Nc2ccc(C#N)cc2)ncc1Br |  | 0.022 | 0.007 | 0.006 | 0.001 | 0.001 | 0.049 | 0.025
Cc1cc(C)c(Oc2ccnc(Nc3ccc(C#N)cc3)n2)c(C)c1 |  | 0.038 | 0.022 | 0.055 | 0.003 | 0.003 | 8.2 | 1.1
COc1ccccc1NC(C(N)=O)c1c(Cl)cccc1Cl (stereo unspecified) | 0.61 |  |  |  |  |  |  | 
CC(C)=CCN1Cc2c(Cl)ccc3[nH]c(=S)n(c23)C[C@@H]1C [TIVIRAPINE] | 0.0046 |  |  |  |  |  |  | 
N#Cc1ccc(Nc2nc(N)nc(Cc3c(Cl)cccc3Cl)n2)cc1 |  | 0.2 | 0.4 | 0.32 | 0.006 | 0.04 |  | 
Cc1cc(C#N)cc(C)c1Nc1ncnc(Nc2ccc(C#N)cc2)n1 |  | 0.05 | 0.25 | 0.05 | 0.001 | 0.008 | > 10 | 
